Target: T1, Heat shock factor 1 (HSF1) (Homo sapiens, UniProt Q00613)
T1 sequence (Q00613 15-120 limits assumed): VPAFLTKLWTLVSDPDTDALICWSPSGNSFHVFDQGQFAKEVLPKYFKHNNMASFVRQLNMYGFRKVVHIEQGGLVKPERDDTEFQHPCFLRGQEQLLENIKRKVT
Assay: SPR Kd
Assay type: binding

Kd: 160 nM
Structure (SMILES): O=C(Nc1ccc(F)cc1)Nc1ccc(Cl)c([N+](=O)[O-])c1 [DTHIB]

Source: paper PMC10571035 (Science translational medicine, 2020)
